According to paper PMC12501029, “Discovery of a CNS active GSK3 degrader using orthogonally reactive linker screening” (Nature Communications, 2025):

Biological target: T1, mouse GSK3β (Mus musculus, UniProt Q9WV60)
T1 construct: Immunoblotting based endogenous degradation profile of KH1 (24) in mouse embryonic fibroblast (MEF) cells; host or cells: MEF cells
Assay: Immunoblot degradation in mouse embryonic fibroblast (MEF) cells, 4 h
Assay type: cell-based
Description: HEK293, HAP1, HAP1 CRBN KO and SH-SY5Y cells were plated in either 6 cm plates or 6-well plates at varying densities (0.5–0.7 × 10^6 cells per plate or wells), and MEF cells were plated in 10 cm plates (1–1.2 × 10^6 cells per plate) depending on experimental set up in respective culturing condition as described above. Stock solutions of compounds were prepared as 10 mM in DMSO (Sigma–Aldrich). Working dilutions were made up fresh in DMSO and culturing media or differentiation media was refreshed prior to any compound treatments. For mode of action studies, cells were pre-treated with inhibitors for 2 h: 1 µM MG132 (Merck, 474790-5 mg), 1 µM MLN4924 (Merck, 5054770001) or 1 µM GSK3 inhibitor (compound 29), before treating with PROTACs for 2, 4 or 24 h as indicated in figure legends. Cells were washed twice with ice-cold PBS (Gibco), harvested in PBS and pelleted, cells were resuspended in RIPA buffer supplemented with complete EDTA-free protease inhibitor cocktail (Roche,11873580001, 1/10 mL) and phosSTOP (Roche, 04906845001, 1 tablet/10 mL) for 20 min lysis on ice then cleared via centrifugation at 16,000 × g, 4 °C for 20 min. […] Following clearance of lysates, protein concentrations were determined by the BCA assay (Fisher Scientific, 23225) or Bradford assay (Bio-rad). […]

T1 sequence (Q9WV60 whole entry): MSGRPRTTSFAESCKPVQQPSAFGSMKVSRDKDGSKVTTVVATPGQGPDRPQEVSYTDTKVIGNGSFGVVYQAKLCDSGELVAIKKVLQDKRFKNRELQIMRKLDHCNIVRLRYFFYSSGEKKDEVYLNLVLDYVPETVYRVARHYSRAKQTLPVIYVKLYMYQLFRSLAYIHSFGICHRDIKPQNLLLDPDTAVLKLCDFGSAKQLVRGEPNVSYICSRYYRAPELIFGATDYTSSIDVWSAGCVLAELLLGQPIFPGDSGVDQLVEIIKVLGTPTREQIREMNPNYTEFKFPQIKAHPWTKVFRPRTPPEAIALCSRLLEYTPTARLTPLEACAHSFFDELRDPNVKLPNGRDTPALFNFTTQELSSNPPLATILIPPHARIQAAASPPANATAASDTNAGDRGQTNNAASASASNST

## Cn1nc(N2CCC(=O)NC2=O)c2ccc(CN3CCN(Cc4ccc(-c5cn(-c6ccc(-c7cn8nccc(C(=O)Nc9cnccc9N9CCOCC9)c8n7)cc6)nn5)nc4)CC3)cc21 [compound 24]
  DC50: 0.1 to 1 nM
